Laboratory results taken from paper PMC7178755 (Toxicology and applied pharmacology, 2019).

What was measured:
[1] = Plasma toxicokinetics after single gavage administration in rats; assay type: in vivo, Harlan Sprague Dawley rats; details: for bioavailability / Tmax / AUC(0-inf) / Cmax / half-life: rat, po; for bioavailability / Tmax / AUC(0-inf) / Cmax / half-life / Cl1_F / Cl2_F / K12 / K21 / V1_F / V2_F: plasma; for half-life / Cl1_F / Cl2_F / K12 / K21 / V1_F / V2_F: mean (SE)
[2] = Plasma toxicokinetics after single intravenous administration in rats; assay type: in vivo, Harlan Sprague Dawley rats; details: female, Hsd:Sprague Dawley SD, rat, iv, 34 mg/kg
[3] = female, Harlan Sprague Dawley (Hsd:Sprague Dawley SD), 34 mg/kg
[4] = female, Hsd:Sprague Dawley SD, 34 mg/kg
[5] = female, Hsd:Sprague Dawley SD, 110 mg/kg
[6] = female, Hsd:Sprague Dawley SD, 340 mg/kg
[7] = free BPAF, female HSD rats, 34 mg/kg gavage
[8] = free BPAF, female rats, 34 mg/kg gavage
[9] = free BPAF, female rats, 110 mg/kg gavage
[10] = free BPAF, female rats, 340 mg/kg gavage
[11] = free BPAF, male rats, 34 mg/kg gavage
[12] = free BPAF, male rats, 110 mg/kg gavage
[13] = free BPAF, male rats, 340 mg/kg gavage
[14] = male, Hsd:Sprague Dawley SD, 34 mg/kg
[15] = male, Hsd:Sprague Dawley SD, 110 mg/kg
[16] = male, Hsd:Sprague Dawley SD, 340 mg/kg

Oc1ccc(C(c2ccc(O)cc2)(C(F)(F)F)C(F)(F)F)cc1 [BPAF, Bisphenol AF]
bioavailability ([1]; both, Hsd:Sprague Dawley SD): ~1% | Tmax ([1]; both, Hsd:Sprague Dawley SD, 34 mg/kg): 0.767 to 0.812 h | AUC(0-inf) [1, 3]: 1.37 µM·h | Cmax [1, 3]: 142 nM | bioavailability [1, 3]: 1.02% | bioavailability ([1]; female, Harlan Sprague Dawley (Hsd:Sprague Dawley SD), 340 mg/kg): 1.06% | Tmax ([1]; female, Hsd:Sprague Dawley SD): 0.767 to 1.34 h | AUC(0-inf) [1, 4]: 461 ng·h/mL | Cmax [1, 4]: 47.4 ng/mL | Tmax [1, 4]: 0.767 h | half-life ([1]; female, Hsd:Sprague Dawley SD, 34 mg/kg, Alpha Half-life, free BPAF, female rats, 34 mg/kg gavage): 0.384 h | half-life ([1]; female, Hsd:Sprague Dawley SD, 34 mg/kg, Beta Half-life, free BPAF, female rats, 34 mg/kg gavage): 8.68 h | half-life ([1]; female, Hsd:Sprague Dawley SD, 34 mg/kg, K10 Half-Life, free BPAF, female rats, 34 mg/kg gavage): 3.35 h | AUC(0-inf) [1, 5]: 1470 ng·h/mL | Cmax [1, 5]: 245 ng/mL | Tmax [1, 5]: 0.658 h | AUC(0-inf) [1, 6]: 4810 ng·h/mL | Cmax [1, 6]: 555 ng/mL | Tmax [1, 6]: 1.34 h | Dose-normalized AUC0−∞ [1, 7]: 13.6 (nmol.h/mL)/(mmol/kg) | Dose-normalized Cmax [1, 7]: 1.406 (nmol/mL)/(mmol/kg) | Cl1_F [1, 8]: 73.8 (13.3) L/h/kg | Cl2_F [1, 8]: 350 (4650) L/h /kg | K12 [1, 8]: 0.981 (31.1) 1/h | K21 [1, 8]: 0.698 (1.29) 1/h | V1_F [1, 8]: 357 (6600) L/kg | V2_F [1, 8]: 502 (5820) L/kg | Cl1_F [1, 9]: 74.7 (13.4) L/h/kg | Cl2_F [1, 9]: 194 (503) L/h /kg | K12 [1, 9]: 1.07 (19.3) 1/h | K21 [1, 9]: 0.215 (0.115) 1/h | V1_F [1, 9]: 181 (2810) L/kg | V2_F [1, 9]: 899 (2050) L/kg | Cl1_F [1, 10]: 70.7 (94.0) L/h/kg | Cl2_F [1, 10]: 101 (180) L/h /kg | K12 [1, 10]: 0.433 (15.4) 1/h | K21 [1, 10]: 0.0391 (0.0929) 1/h | V2_F [1, 10]: 2580 (6150) L/kg | Cl1_F [1, 11]: 85.2 (20.0) L/h/kg | Cl2_F [1, 11]: 193 (24800) L/h /kg | K12 [1, 11]: 0.849 (604) 1/h | K21 [1, 11]: 0.257 (0.137) 1/h | V1_F [1, 11]: 227 (132000) L/kg | V2_F [1, 11]: 752 (966600) L/kg | Cl1_F [1, 12]: 89.1 (52.4) L/h/kg | Cl2_F [1, 12]: 122 (2520) L/h /kg | K12 [1, 12]: 0.402 (62.7) 1/h | K21 [1, 12]: 0.0972 (0.207) 1/h | V1_F [1, 12]: 304 (41100) L/kg | V2_F [1, 12]: 1260 (23900) L/kg | Cl1_F [1, 13]: 70.3 (20.8) L/h/kg | Cl2_F [1, 13]: 36.9 (1910) L/h /kg | K12 [1, 13]: 0.156 (49.5) 1/h | K21 [1, 13]: 0.0814 (0.223) 1/h | V1_F [1, 13]: 237 (62900) L/kg | V2_F [1, 13]: 454 (24400) L/kg | bioavailability ([1]; male, Harlan Sprague Dawley (Hsd:Sprague Dawley SD), 34 mg/kg): 0.88% | bioavailability ([1]; male, Harlan Sprague Dawley (Hsd:Sprague Dawley SD), 110 mg/kg): 0.84% | bioavailability ([1]; male, Harlan Sprague Dawley (Hsd:Sprague Dawley SD), 340 mg/kg): 1.07% | Tmax ([1]; male, Hsd:Sprague Dawley SD): 0.812 to 2.3 h | AUC(0-inf) [1, 14]: 399 ng·h/mL | Cmax [1, 14]: 60.7 ng/mL | Tmax [1, 14]: 0.812 h | half-life ([1]; male, Hsd:Sprague Dawley SD, 34 mg/kg, Alpha Half-life, free BPAF, male rats, 34 mg/kg gavage): 0.491 h | half-life ([1]; male, Hsd:Sprague Dawley SD, 34 mg/kg, Beta Half-life, free BPAF, male rats, 34 mg/kg gavage): 10.2 h | half-life ([1]; male, Hsd:Sprague Dawley SD, 34 mg/kg, K10 Half-Life, free BPAF, male rats, 34 mg/kg gavage): 1.85 h | AUC(0-inf) [1, 15]: 1230 ng·h/mL | Cmax [1, 15]: 142 ng/mL | Tmax [1, 15]: 1.43 h | AUC(0-inf) [1, 16]: 4830 ng·h/mL | Cmax [1, 16]: 552 ng/mL | Tmax [1, 16]: 2.2 h | AUC(0-inf) [2]: 45300 ng·h/mL
